Laboratory results: patent publication US8679442B2, “Fullerene compositions and methods for photochemical purification” (William Marsh Rice University, priority 2009, dated 2014)

Experiments:
[1] = Triplet-state decay kinetics by laser flash photolysis; format: physicochemical; conditions: hexane solution, comparable experimental conditions
Description: Measurement of Triplet-State Decay Kinetics in Hexakis-Substituted C60 Fullerene Derivatives. Decay kinetics of the triplet states for the hexakis-substituted C60 derivatives were measured by laser flash photolysis using a 308 nm laser pulse (10-20 mJ with a pulse width of 10 ns). A xenon lamp was used as the monitoring source. […] The test solutions were purged with bubbling argon gas for 15 minutes and then sealed from the atmosphere. Instantaneous generation of the triplet state was induced by laser pulse irradiation with subsequent monitoring between 650 and 770 nm, depending on the specific functional groups present in each hexakis-substituted C60 fullerene derivative.

[2] = Photochemically-induced singlet oxygen production, furfuryl alcohol (FFA) degradation under BLB lamps; conditions: 50 μM derivative, 0.5 mM FFA
Description: Photochemically-Induced Singlet Oxygen Production from Hexakis-Substituted C60 Fullerene Derivatives. Photochemical generation of singlet oxygen was performed using a magnetically stirred 60 mL cylindrical quartz reactor surrounded by six 4 W black light blue (BLB) lamps (emission wavelength region: 350-400 nm, Philips TL4W) at ambient temperature (22° C.). The incident light intensity was 3.79×10^−4 Einstein·min^−1L^−1. Reaction solutions containing 50 μM of hexakis-substituted C60 fullerene derivatives 1-4 and 0.5 mM furfuryl alcohol (FFA) as an indicator/reactant for singlet oxygen formed were buffered at pH=7 using 10 mM phosphate buffer. Thereafter, the solutions were exposed to the light source. As the photochemical reaction proceeded, 1 mL sample aliquots were periodically withdrawn from the reactor using a syringe, filtered through a 0.22 μm PTFE filter (Millipore), and injected into a 2 mL amber glass vial for further analysis. The residual FFA concentration was quantified using HPLC. […] Generation of singlet oxygen from commercially-available fullerol is presented for comparison purposes.
Table 1 summarizes the initial degradation rate of FFA in the presence of hexakis-substituted C60 fullerene derivatives 1-4 in comparison to commercially available fullerol and Rose Bengal. Initial FFA degradation rates of hexakis-substituted C60 fullerene derivatives 1-4 in the presence of L-histidine and t-butanol are also presented for comparison. […] As shown by the FFA degradation rate, the singlet oxygen production of the C60 fullerene derivatives was greatest for hexakis-substituted C60 fullerene derivative 4 and smallest for hexakis-substituted C60 fullerene derivative 1.

Row | SMILES | triplet state formation [1] | Initial FFA Degradation Rate, No Scavenger ([2]; pH 7, 10 mM phosphate buffer, BLB 350-400 nm, no scavenger) | Initial FFA Degradation Rate, L-Histidine Scavenger ([2]; pH 7, BLB 350-400 nm, excess L-histidine) | Initial FFA Degradation Rate, t-Butanol Scavenger ([2]; pH 7, BLB 350-400 nm, t-butanol)
1 | c12c3c4c5c1c1c6c7c2c2c8c3c3c9c4c4c%10c5c5c1c1c6c6c%11c7c2c2c7c8c3c3c8c9c4c4c9c%10c5c5c1c1c6c6c%11c2c2c7c3c3c8c4c4c9c5c1c1c6c2c3c41 [C60, Buckminsterfullerene] | not detected | – | – | –
2 | O=C([O-])c1c(Cl)c(Cl)c(Cl)c(Cl)c1-c1c2cc(I)c(=O)c(I)c-2oc2c(I)c([O-])c(I)cc12.[Na+].[Na+] [Rose Bengal] | – | 16.34 ± 0.29 | 0.07 ± 0.04 | 16.70 ± 0.47
